This passage reports risk for hypertension and IC50 results from US20140315883A1, “6H-IMIDAZO[1,5-a]PYRROLO[2,3-e]PYRAZINE COMPOUNDS” (ABBVIE INC., priority 2013, published 2014).

By IC50 is commonly meant the concentration needed to halve the response being measured. Lower therefore signals greater potency in that assay.

System in one series: not given
Assay: not given
Conditions: patients in clinical trials; cited from earlier work.
As for `CCN(CC)CCNC(=O)c1c(C)[nH]c(/C=C2\C(=O)Nc3ccc(F)cc32)c1C` [sunitibnib, sunitinib], the risk for hypertension entry is recorded as “increased risk for hypertension”.

Another series has as its target T1, Syk (Homo sapiens, UniProt P43405).
T1 construct: Purified Syk catalytic domain (aa 356-635 with a C-terminal His-tag purified in-house); His-tag (C); made in house
As to the kind of experiment: In vitro Syk kinase activity measured by trFRET. The settings on record: Syk catalytic domain, 0.001 mM ATP. In kind it is biochemical. As for the experimental part: In Vitro Syk Kinase Activity Measured by Time-Resolved Fluorescence Resonance Energy Transfer (trFRET)
After about 60 min incubation at rt, the reaction was quenched by addition of EDTA (final concentration: 100 mM) and developed by addition of revelation reagents (final approximate concentrations: 30 mM HEPES pH 7.0, 0.06% BSA, 0.006% Tween-20, 0.24 M KF, 80 ng/mL PT66K (europium labeled anti-phosphotyrosine antibody cat #61T66KLB Cisbio, Bedford, Mass.) and 0.6 μg/mL SAXL (Phycolink streptavidin-allophycocyanin acceptor, cat #PJ25S, Prozyme, San Leandro, Calif.). The developed reaction was incubated in the dark either at about 4° C. for about 14 h or for about 60 min at rt, then read via a time-resolved fluorescence detector (Rubystar, BMG) using a 337 nm laser for excitation and monitoring emission wavelengths at 665 nm. Within the linear range of the assay, the observed signal at 665 nm was directly related to phosphorylated product and can be used to calculate the IC50 values.
`CCOc1ccc(-c2nc([C@H]3C[C@@H](O)CN3C(C)=O)n3c2cnc2[nH]cc(Cl)c23)cc1` [F.1.11, 1-((2R,4R)-2-(8-chloro-3-(4-ethoxyphenyl)-6H-imidazo[1,5-a]pyrrolo[2,3-e]pyrazin-1-yl)-4-hydroxypyrrolidin-1-yl)ethanone] yielded an IC50 of 10 to 30 nM. The molecule `CC(=O)N1C[C@H](O)C[C@@H]1c1nc(-c2ccsc2)c2cnc3[nH]ccc3n12` [A.1.1] yielded an IC50 of 10 to 30 nM.

On to `COCc1ccc(-c2nc([C@H]3C[C@@H](O)CN3C(C)=O)n3c2cnc2[nH]ccc23)cc1` [Example #7, 1-((2R,4R)-4-Hydroxy-2-(3-(4-(methoxymethyl)phenyl)-6H-imidazo[1,5-a]pyrrolo[2,3-e]pyrazin-1-yl)pyrrolidin-1-yl)ethanone], for which the IC50 was 30 to 100 nM.

As for `CC(=O)N1C[C@H](O)C[C@@H]1c1nc(-c2ccc(N3CCCCC3)cc2)c2cnc3[nH]ccc3n12` [F.1.1.13, 1-((2R,4R)-4-hydroxy-2-(3-(4-(piperidin-1-yl)phenyl)-6H-imidazo[1,5-a]pyrrolo[2,3-e]pyrazin-1-yl)pyrrolidin-1-yl)ethanone], the IC50 was less than 10 nM. The same measure, in the same setting: in the case of `CC(=O)N1C[C@H](O)C[C@@H]1c1nc(-c2ccc(C3CCOCC3)cc2)c2cnc3[nH]ccc3n12` [F.1.18, 1-((2R,4R)-4-hydroxy-2-(3-(4-(tetrahydro-2H-pyran-4-yl)phenyl)-6H-imidazo[1,5-a]pyrrolo[2,3-e]pyrazin-1-yl)pyrrolidin-1-yl)ethanone] it was less than 10 nM. Still for that read-out and setting: the result for `CO[C@H](C)c1ccc(-c2nc([C@H]3C[C@@H](O)CN3C(C)=O)n3c2cnc2[nH]ccc23)cc1` [F.1.2, 1-((2R,4R)-4-hydroxy-2-(3-(4-((R)-1-methoxyethyl)phenyl)-6H-imidazo[1,5-a]pyrrolo[2,3-e]pyrazin-1-yl)pyrrolidin-1-yl)ethanone] reads 10 to 30 nM. As for `CO[C@@H](C)c1ccc(-c2nc([C@H]3C[C@@H](O)CN3C(C)=O)n3c2cnc2[nH]ccc23)cc1` [F.1.3, 1-((2R,4R)-4-hydroxy-2-(3-(4-((S)-1-methoxyethyl)phenyl)-6H-imidazo[1,5-a]pyrrolo[2,3-e]pyrazin-1-yl)pyrrolidin-1-yl)ethanone], the IC50 is less than 10 nM. Same read-out and setting: the result for `CC(=O)N1C[C@H](O)C[C@@H]1c1nc(-c2ccc(OC(C)C)cc2)c2cnc3[nH]ccc3n12` [F.1.23, 1-((2R,4R)-4-hydroxy-2-(3-(4-isopropoxyphenyl)-6H-imidazo[1,5-a]pyrrolo[2,3-e]pyrazin-1-yl)pyrrolidin-1-yl)ethanone] reads 10 to 30 nM; that for `CC(=O)N1C[C@H](O)C[C@@H]1c1nc(-c2ccc(C(C)(C)C#N)cc2)c2cnc3[nH]ccc3n12` [F.1.16, 2-(4-(1-((2R,4R)-1-acetyl-4-hydroxypyrrolidin-2-yl)-6H-imidazo[1,5-a]pyrrolo[2,3-e]pyrazin-3-yl)phenyl)-2-methylpropanenitrile], less than 10 nM; that for `COc1ccc(-c2nc([C@H]3C[C@@H](O)CN3C(C)=O)n3c2cnc2[nH]cc(C)c23)cc1` [F.1.14], 30 to 100 nM. On the same count and under the same terms, in the case of `CNc1ccc(-c2nc([C@H]3C[C@@H](O)CN3C(C)=O)n3c2cnc2[nH]ccc23)cc1` [Example #1, 1-((2R,4R)-4-Hydroxy-2-(3-(4-(methylamino)phenyl)-6H-imidazo[1,5-a]pyrrolo[2,3-e]pyrazin-1-yl)pyrrolidin-1-yl)ethanone] it was 10 to 30 nM; in that of `CCOc1ccc(-c2nc([C@H]3C[C@@H](O)CN3C(C)=O)n3c2cnc2[nH]ccc23)cc1C` [F.1.28, 1-((2R,4R)-2-(3-(4-ethoxy-3-methylphenyl)-6H-imidazo[1,5-a]pyrrolo[2,3-e]pyrazin-1-yl)-4-hydroxypyrrolidin-1-yl)ethanone], less than 10 nM. `CC(=O)N1C[C@H](O)C[C@@H]1c1nc(-c2ccc(C(=O)N3CCC(F)(F)CC3)cc2)c2cnc3[nH]ccc3n12` [F.1.1, 1-((2R,4R)-2-(3-(4-(4,4-difluoropiperidine-1-carbonyl)phenyl)-6H-imidazo[1,5-a]pyrrolo[2,3-e]pyrazin-1-yl)-4-hydroxypyrrolidin-1-yl)ethanone]: the IC50 is greater than 100 nM.

As for `CC(=O)N1C[C@H](O)C[C@@H]1c1nc(-c2ccc(OCC(F)(F)F)cc2)c2cnc3[nH]ccc3n12` [Example #9, 1-((2R,4R)-4-Hydroxy-2-(3-(4-(2,2,2-trifluoroethoxy)phenyl)-6H-imidazo[1,5-a]pyrrolo[2,3-e]pyrazin-1-yl)pyrrolidin-1-yl)ethanone], the IC50 was 30 to 100 nM.

`COCCOc1ccc(-c2nc([C@H]3C[C@@H](O)CN3C(=O)CF)n3c2cnc2[nH]ccc23)cc1` [E.1.2, 2-fluoro-1-((2R,4R)-4-hydroxy-2-(3-(4-(2-methoxyethoxy)phenyl)-6H-imidazo[1,5-a]pyrrolo[2,3-e]pyrazin-1-yl)pyrrolidin-1-yl)ethanone] had an IC50 of 10 to 30 nM.

`CC(=O)N1C[C@H](O)C[C@@H]1c1nc(-c2ccc(C(F)(F)F)cc2)c2cnc3[nH]ccc3n12` [Example #A.1.4, 1-((2R,4R)-4-hydroxy-2-(3-(4-(trifluoromethyl)phenyl)-6H-imidazo[1,5-a]pyrrolo[2,3-e]pyrazin-1-yl)pyrrolidin-1-yl)ethanone] gave an IC50 of 30 to 100 nM.

`CC(=O)N1C[C@H](O)C[C@@H]1c1nc(-c2ccc(OCCn3nccn3)cc2)c2cnc3[nH]ccc3n12` [A.1.3, 1-((2R,4R)-2-(3-(4-(2-(2H-1,2,3-triazol-2-yl)ethoxy)phenyl)-6H-imidazo[1,5-a]pyrrolo[2,3-e]pyrazin-1-yl)-4-hydroxypyrrolidin-1-yl)ethanone] registered an IC50 of 30 to 100 nM.

The molecule `COc1ccc(-c2nc([C@H]3C[C@@H](O)CN3C(C)=O)n3c2cnc2[nH]ccc23)cc1` [Example #F.1.4, 1-((2R,4R)-4-hydroxy-2-(3-(4-methoxyphenyl)-6H-imidazo[1,5-a]pyrrolo[2,3-e]pyrazin-1-yl)pyrrolidin-1-yl)ethanone] came in with an IC50 of 10 to 30 nM. The same measure, in the same setting: the result for `CC(=O)N1C[C@H](O)C[C@@H]1c1nc(-c2ccc3c(c2)NCCO3)c2cnc3[nH]ccc3n12` [F.1.29, 1-((2R,4R)-2-(3-(3,4-dihydro-2H-benzo[b][1,4]oxazin-6-yl)-6H-imidazo[1,5-a]pyrrolo[2,3-e]pyrazin-1-yl)-4-hydroxypyrrolidin-1-yl)ethanone] reads 10 to 30 nM; that for `CC(=O)N1C[C@H](O)C[C@@H]1c1nc(-c2ccc3c(c2)NCCC3)c2cnc3[nH]ccc3n12` [F.1.30, 1-((2R,4R)-4-hydroxy-2-(3-(1,2,3,4-tetrahydroquinolin-7-yl)-6H-imidazo[1,5-a]pyrrolo[2,3-e]pyrazin-1-yl)pyrrolidin-1-yl)ethanone], 10 to 30 nM. Still for that read-out and setting: the result for `CC(=O)N1C[C@H](O)C[C@@H]1c1nc(-c2ccc(Cn3nccn3)cc2)c2cnc3[nH]ccc3n12` [Example #8, 1-((2R,4R)-2-(3-(4-((2H-1,2,3-Triazol-2-yl)methyl)phenyl)-6H-imidazo[1,5-a]pyrrolo[2,3-e]pyrazin-1-yl)-4-hydroxypyrrolidin-1-yl)ethanone] reads 30 to 100 nM. Take “(2R,4R)-2-(3-(chroman-6-yl)-6H-imidazo[1,5-a]pyrrolo[2,3-e]pyrazin-1-yl)-4-hydroxypyrrolidine-1-carboxamide [Example #6]”: the IC50 was 10 to 30 nM. Same read-out and setting: the result for `CC(=O)N1C[C@H](O)C[C@@H]1c1nc(-c2ccc(O[C@H](C)C3CC3)cc2)c2cnc3[nH]ccc3n12` (single isomer, unassigned) [Example #2] reads 30 to 100 nM; that for `CC(=O)N1C[C@H](O)C[C@@H]1c1nc(-c2ccc(C(C)(C)O)c(F)c2)c2cnc3[nH]ccc3n12` [F.1.5, 1-((2R,4R)-2-(3-(3-fluoro-4-(2-hydroxypropan-2-yl)phenyl)-6H-imidazo[1,5-a]pyrrolo[2,3-e]pyrazin-1-yl)-4-hydroxypyrrolidin-1-yl)ethanone], 10 to 30 nM; that for `COc1ccc(-c2nc([C@H]3C[C@@H](O)CN3C(=O)CF)n3c2cnc2[nH]ccc23)cc1` [E.1.1], 10 to 30 nM.

In turn, `CC(=O)N1C[C@H](O)C[C@@H]1c1nc(-c2ccc(C(F)F)cc2)c2cnc3[nH]ccc3n12` [A.1.5, 1-((2R,4R)-2-(3-(4-(difluoromethyl)phenyl)-6H-imidazo[1,5-a]pyrrolo[2,3-e]pyrazin-1-yl)-4-hydroxypyrrolidin-1-yl)ethanone] had an IC50 of 30 to 100 nM.
